Reference: patent US6384220B2, “Para-aryl or heterocyclic substituted phenyl glucokinase activators” (Hoffmann-La Roche Inc., priority 2000, dated 2002)

**Q.** With `O=C(Nc1nccs1)C(CC1CCCC1)c1ccc(S(=O)(=O)C2CCCC2)cc1` (centres unmarked) [Example 19, 2-(4-Cyclopentanesulfonyl-phenyl)-3-cyclopentyl-N-thiazol-2-yl-propionamide] as the compound, how does the melting point read?
**A.** Its melting point is 180 to 182 °C.

**Q.** With `COC(=O)c1ccc(NC(=O)C(CC2CCCC2)c2ccc(-c3ccccc3)cc2)nc1` (centres unmarked) [Example 22, 6-(2-Biphenyl-4-yl-3-cyclopentyl-propionylamino)-nicotinic acid methyl ester] as the compound, how does the melting point read?
**A.** The melting point was 63 to 65 °C.

**Q.** With `CNC(=O)NC(=O)C(CC1CCCC1)c1ccc(-c2ccc3[nH]ccc3c2)cc1` (centres unmarked) [Example 37, 1-{3-Cyclopentyl-2-[4-(1H-indol-5-yl)-phenyl]-propionyl}-3-methyl-urea] as the compound, how does the melting point read?
**A.** The melting point was 91 to 95 °C.

**Q.** For `O=C(Nc1nccs1)C(CC1CCCC1)c1ccc(-c2ccncc2)cc1` (centres unmarked) [Example 9, 3-Cyclopentyl-2-(4-pyridin-4-yl-phenyl)-N-thiazol-2-yl-propionamide], which melting point is on record?
**A.** Its melting point is 213 to 215 °C.

**Q.** With `O=C(Nc1nccs1)C(CC1CCCC1)c1ccc(Oc2ccccc2)cc1` (centres unmarked) [Example 12, 3-Cyclopentyl-2-(4-phenoxy-phenyl)-N-thiazol-2-yl-propionamide] as the compound, how does the melting point read?
**A.** Its melting point is 154.9 to 155.1 °C.

**Q.** With `O=C(Nc1ccccn1)C(CC1CCCC1)c1ccc(-c2cccnc2)cc1` (centres unmarked) [Example 28, 3-Cyclopentyl-N-pyridin-2-yl-2-(4-pyridin-3-yl-phenyl)-propionamide] as the compound, how does the melting point read?
**A.** Its melting point is 139 to 140 °C.

**Q.** Which melting point does the source give for `O=C(Nc1ccccn1)C(CC1CCCC1)c1ccc(-c2cccc3ccccc23)cc1` (centres unmarked) [Example 25, 3-Cyclopentyl-2-(4-naphthalen-1-yl-phenyl)-N-pyridin-2-yl-propionamide] here?
**A.** Its melting point is 73 to 77 °C.

**Q.** With `O=C(Nc1nccs1)C(CC1CCCC1)c1ccc(-c2cccc3ccccc23)cc1` (centres unmarked) [Example 5, 3-Cyclopentyl-2-(4-naphthalen-1-yl-phenyl)-N-thiazol-2-yl-propionamide] as the compound, how does the melting point read?
**A.** Its melting point is 202 to 204 °C.

**Q.** With `O=C(Nc1ccccn1)C(CC1CCCC1)c1ccc(-c2ccccc2)cc1` (centres unmarked) [Example 21, 2-Biphenyl-4-yl-3-cyclopentyl-N-pyridin-2-yl-propionamide] as the compound, how does the melting point read?
**A.** The melting point was 57 to 59 °C.

**Q.** With `O=C(Nc1nc(CCO)cs1)C(CC1CCCC1)c1ccc(-c2cccc3ccccc23)cc1` (centres unmarked) [Example 6, 3-Cyclopentyl-N-[4-(2-hydroxyethyl)-thiazol-2-yl]-2-(4-naphthalen-1-yl-phenyl)-propionamide] as the compound, how does the melting point read?
**A.** The melting point was 84 to 87 °C.

**Q.** Which melting point does the source give for `O=C(Nc1nccs1)C(CC1CCCC1)c1ccc(-c2ccc3[nH]ccc3c2)cc1` (centres unmarked) [Example 10, 3-Cyclopentyl-2-[4-(1H-indol-5-yl)-phenyl]-N-thiazol-2-yl-propionamide] here?
**A.** Its melting point is 112 to 115 °C.

**Q.** With `O=C(Nc1nccs1)C(CC1CCCC1)c1ccc(S(=O)(=O)c2ncc[nH]2)cc1` (centres unmarked) [Example 20, 3-Cyclopentyl-2-[4-(1H-imidazole-2-sulfonyl)-phenyl]-N-thiazol-2-yl-propionamide] as the compound, how does the melting point read?
**A.** Its melting point is 249 to 251 °C.

**Q.** With `O=C(Nc1nccs1)C(CC1CCCC1)c1ccc(N2CCOCC2)cc1` (centres unmarked) [Example 18, 3-Cyclopentyl-2-(4-morpholin-4-yl-phenyl)-N-thiazol-2-yl-propionamide] as the compound, how does the melting point read?
**A.** The melting point was 244 to 246 °C.

**Q.** For `NC(=O)NC(=O)C(CC1CCCC1)c1ccc(-c2ccccc2)cc1` (centres unmarked) [Example 33, (2-Biphenyl-4-yl-3-cyclopentyl-propionyl) urea], which melting point is on record?
**A.** Its melting point is 184 to 185 °C.

**Q.** For `CNC(=O)NC(=O)C(CC1CCCC1)c1ccc(N2CCOCC2)cc1` (centres unmarked) [Example 39, 1-[3-Cyclopentyl-2-(4-morpholin-4-yl-phenyl)-propionyl]-3-methyl-urea], which melting point is on record?
**A.** The melting point was 206 to 207 °C.

**Q.** Which melting point does the source give for `O=C(O)c1ccc(NC(=O)C(CC2CCCC2)c2ccc(-c3cccc4ccccc34)cc2)nc1` (centres unmarked) [Example 26, 6-[3-Cyclopentyl-2-(4-naphthalen-1-yl-phenyl)-propionylamino]-nicotinic acid] here?
**A.** The melting point was 155 to 158 °C.

**Q.** With `CNC(=O)NC(=O)C(CC1CCCC1)c1ccc(-c2ccccc2)cc1` (centres unmarked) [Example 34, 1-(2-Biphenyl-4-yl-3-cyclopentyl-propionyl)-3-methyl urea] as the compound, how does the melting point read?
**A.** Its melting point is 195 to 197 °C.

**Q.** Which melting point does the source give for `O=C(Nc1nccs1)C(CC1CCCC1)c1ccc(OCc2ccccc2)cc1` (centres unmarked) [Example 11, 2-(4-Benzyloxy-phenyl)-3-cyclopentyl-N-thiazol-2-yl-propionamide] here?
**A.** Its melting point is 48 to 50 °C.

**Q.** With `O=C(Nc1ccc(CO)cn1)C(CC1CCCC1)c1ccc(-c2ccccc2)cc1` (centres unmarked) [Example 24, 2-Biphenyl-4-yl-3-cyclopentyl-N-(5-hydroxymethyl-pyridin-2-yl)-propionamide] as the compound, how does the melting point read?
**A.** The melting point was 67 to 70 °C.

**Q.** With `O=C(Nc1ccc(CO)cn1)C(CC1CCCC1)c1ccc(-c2cccc3ccccc23)cc1` (centres unmarked) [Example 27, 3-Cyclopentyl-N-(5-hydroxymethyl-pyridin-2-yl)-2-(4-naphthalen-1-yl-phenyl)-propionamide] as the compound, how does the melting point read?
**A.** The melting point was 72 to 75 °C.

**Q.** Which melting point does the source give for `O=C(Nc1nc(CO)cs1)C(CC1CCCC1)c1ccc(-c2ccccc2)cc1` (centres unmarked) [Example 3, 2-Biphenyl-4-yl-3-cyclopentyl-N-(4-hydroxymethyl-thiazol-2-yl)-propionamide] here?
**A.** The melting point was 102 to 104 °C.

**Q.** For `O=C(O)c1ccc(NC(=O)C(CC2CCCC2)c2ccc(-c3ccccc3)cc2)nc1` (centres unmarked) [Example 23, 6-(2-Biphenyl-4-yl-3-cyclopentyl-propionylamino)-nicotinic acid], which melting point is on record?
**A.** The melting point was 271 to 272 °C (dec.).

**Q.** Which melting point does the source give for `O=C(Nc1nccs1)C(CC1CCCC1)c1ccc(-c2cccs2)cc1` (centres unmarked) [Example 7, 3-Cyclopentyl-N-thiazol-2-yl-2-(4-thiophen-2-yl-phenyl)-propionamide] here?
**A.** Its melting point is 194 °C (dec.).

**Q.** With `CNC(=O)NC(=O)C(CC1CCCC1)c1ccc(-c2cccnc2)cc1` (centres unmarked) [Example 36, 1-[3-Cyclopentyl-2-(4-pyridin-3-yl-phenyl)-propionyl]-3-methyl-urea] as the compound, how does the melting point read?
**A.** The melting point was 158 to 160 °C.

**Q.** With `CNC(=O)NC(=O)C(CC1CCCC1)c1ccc(S(=O)(=O)C2CCCCC2)cc1` (centres unmarked) [Example 40, 1-[2-(4-Cyclohexanesulfonyl-phenyl)-3-cyclopentyl-propionyl]-3-methyl-urea] as the compound, how does the melting point read?
**A.** The melting point was 244 to 246 °C.

**Q.** For `O=C(Nc1ccccn1)C(CC1CCCC1)c1ccc(-c2ccncc2)cc1` (centres unmarked) [Example 29, 3-Cyclopentyl-N-pyridin-2-yl-2-(4-pyridin-4-yl-phenyl)-propionamide], which melting point is on record?
**A.** Its melting point is 165 to 167 °C.

**Q.** Which melting point does the source give for `O=C(Nc1nccs1)C(CC1CCCC1)c1ccc(-c2cccnc2)cc1` (centres unmarked) [Example 8, 3-Cyclopentyl-2-(4-pyridin-3-yl-phenyl)-N-thiazol-2-yl-propionamide] here?
**A.** Its melting point is 48 to 52 °C.

**Q.** For `O=C(Nc1nccs1)[C@H](CC1CCCC1)c1ccc(-c2ccccc2)cc1` [Example 4, (2R)-2-Biphenyl-4-yl-3-cyclopentyl-N-thiazol-2-yl-propionamide], which melting point is on record?
**A.** The melting point was 132 to 134 °C.

**Q.** With `O=C(Nc1nc(CO)cs1)C(CC1CCCC1)c1ccc(Oc2ccccc2)cc1` (centres unmarked) [Example 13, 3-Cyclopentyl-N-(4-hydroxymethyl-thiazol-2-yl)-2-(4-phenoxy-phenyl)-propionamide] as the compound, how does the melting point read?
**A.** The melting point was 83.7 to 87 °C.

**Q.** For `CNC(=O)NC(=O)C(CC1CCCC1)c1ccc(-c2cccc3ccccc23)cc1` (centres unmarked) [Example 35, 1-[3-Cyclopentyl-2-(4-naphthalen-1-yl-phenyl)-propionyl]-3-methyl urea], which melting point is on record?
**A.** Its melting point is 85 to 88 °C.

**Q.** Which melting point does the source give for `COC(=O)c1csc(NC(=O)C(CC2CCCC2)c2ccc(-c3ccccc3)cc2)n1` (centres unmarked) [Example 2, 2-(2-Biphenyl-4-yl-3-cyclopentyl-propionylamino)-thiazole-4-carboxylic acid methyl ester] here?
**A.** The melting point was 98 to 101 °C.

**Q.** For `O=C(Nc1nccs1)C(CC1CCCC1)c1ccc(-c2ccccc2)cc1` (centres unmarked) [Example 1, 2-Biphenyl-4-yl-3-cyclopentyl-N-thiazol-2-yl-propionamide], which melting point is on record?
**A.** The melting point was 194 to 195 °C.
